From US10463670B2, “Use of non-peptide NK1 antagonists in a predetermined dose for the treatment of cancer” (SERVICIO ANDALUZ DE SALUD, priority 2013, dated 2019)
“Also recorded” adds a separate entry of the source.

Legend:
[1] = tested on: Human neuroblastoma KELLY; experiment: MTS cell proliferation, nanomolar antagonist, KELLY; assay type: cell-based; conditions: Aprepitant 1, 5 and 7 nM, vs cells grown in the absence of antagonist, time dependant
Experimental: (§1) Cell cultures of various commercial tumour cell lines stated in table 13 were used. [table] […] The number of cells was quantified using a Coulter counter. […] The culture plates were grown in the presence of increasing concentrations of non-peptide NK1 receptor antagonists. To obtain the staining in the proliferation assays, 20 μl of MTS were added to each one of the wells of the cell culture plates 90 minutes before reading the samples in a multiscan spectrophotometer (TECAN Spectra classic, Barcelona, Spain) at 492 nm (assay wavelength) and 690 nm (reference wavelength). The different doses were tested in duplicate and each experiment was performed in triplicate. The antagonist Aprepitant was used at the following concentrations: 1 nanomolar -nM-, 5 nanomolar -nM- and 7 nanomolar -nM-. […] As proliferation control, the cells were grown in the absence of said antagonist. This is expressed in FIGS. 1 to 10.

[2] = tested on: Human fibrosarcoma HT-1080; experiment: MTS cell proliferation, nanomolar antagonist, HT-1080; assay type: cell-based; conditions: Aprepitant 1, 5 and 7 nM, vs cells grown in the absence of antagonist, time dependant
Experimental: as §1

[3] = tested on: human lymphoma; reference BC-1; experiment: Lymphoma BC-1 tumours implanted s.c. in nude mice, Aprepitant alone; assay type: in vivo
Experimental: (§2) Immunocompromised female mice, 5-6 weeks of age were used, nu/nu Balb/c nude mice, provided by Harlan Iberica Barcelona (Spain). They were kept at 24° C. and in sterile conditions with food and water “ad libitum”. They were injected with 2×10^7 tumour cells, corresponding to cancer (human lung cancer, reference HCC-44 supplied by DSMZ) in 200 μl of PBS subcutaneous route. The tumour size was measured and the mice were evaluated for their state of health and weight daily. The mice were randomized in nine groups when the tumours reached a volume of 75 mm^3. One of the groups was treated with 200 μl of placebo (control group) and the eight remaining groups with doses of 10 (group 1), 20 (group 2), 30 (group 3), 40 (group 4), 50 (group 5), 60 (group 6), 70 (group 7) and 80 (group 8) mg per kilogram of weight and day of the NK1 receptor antagonist Aprepitant. 3 animals were treated per group, during 28 days. All the mice were sacrificed at the end of the experiment.
(§3) Immunocompromised female mice, 5-6 weeks of age were used, in the same conditions as explained in example 1. They were injected with 2×10^7 tumour cells, corresponding to a haematological cell line tumour (human lymphoma; reference BC-1; supplied by DSMZ) in 200 μl of PBS by subcutaneous route. The tumour size was measured and the mice were evaluated for their state of health and weight daily. The mice were randomized in nine groups when the tumours reached a volume of 75 mm^3. One of the groups was treated with 200 μl of placebo (control group) and the eight remaining groups with doses of 10 (group 1), 20 (group 2), 30 (group 3), 40 (group 4), 50 (group 5), 60 (group 6), 70 (group 7) and 80 (group 8) mg per kilogram of weight and day of the NK1 receptor antagonist Aprepitant. 3 animals were treated per group, during 28 days. All the mice were sacrificed at the end of the experiment.

brain tumours = conditions: Aprepitant 3 mg per kilogram of weight and day; mice; Lewis et al. 2013; cited from earlier work
[4] = tested on: human melanoma; reference MEL-HO; experiment: Melanoma MEL-HO tumours implanted s.c. in nude mice, Aprepitant alone; assay type: in vivo
Experimental: as §2
as §3, with “melanoma” for “haematological”, “melanoma;” for “lymphoma;”, “MEL-HO;” for “BC-1;”

Human lung cancer A-427 = experiment: MTS cell proliferation, nanomolar antagonist, A-427; assay type: cell-based; conditions: Aprepitant 1, 5 and 7 nM, vs cells grown in the absence of antagonist, time dependant
Experimental: as §1

Human glioma GAMG = experiment: MTS cell proliferation, nanomolar antagonist, GAMG; assay type: cell-based; conditions: Aprepitant 1, 5 and 7 nM, vs cells grown in the absence of antagonist, time dependant
Experimental: as §1

[5] = Aprepitant 10 mg/kg/day, 7 days
[6] = Aprepitant 10 mg/kg/day, 14 days
[7] = Aprepitant 10 mg/kg/day, 21 days
[8] = Aprepitant 10 mg/kg/day, 28 days
[9] = Aprepitant 20 mg/kg/day, 7 days
[10] = Aprepitant 20 mg/kg/day, 14 days
[11] = Aprepitant 20 mg/kg/day, 21 days
[12] = Aprepitant 20 mg/kg/day, 28 days
[13] = Aprepitant 30 mg/kg/day, 7 days
[14] = Aprepitant 30 mg/kg/day, 14 days
[15] = Aprepitant 30 mg/kg/day, 21 days
[16] = Aprepitant 30 mg/kg/day, 28 days
[17] = Aprepitant 40 mg/kg/day, 7 days
[18] = Aprepitant 40 mg/kg/day, 14 days
[19] = Aprepitant 40 mg/kg/day, 21 days
[20] = Aprepitant 40 mg/kg/day, 28 days
[21] = Aprepitant 50 mg/kg/day, 7 days
[22] = Aprepitant 50 mg/kg/day, 14 days
[23] = Aprepitant 50 mg/kg/day, 21 days
[24] = Aprepitant 50 mg/kg/day, 28 days
[25] = Aprepitant 60 mg/kg/day, 7 days
[26] = Aprepitant 60 mg/kg/day, 14 days
[27] = Aprepitant 60 mg/kg/day, 21 days
[28] = Aprepitant 60 mg/kg/day, 28 days
[29] = Aprepitant 70 mg/kg/day, 7 days
[30] = Aprepitant 70 mg/kg/day, 14 days
[31] = Aprepitant 70 mg/kg/day, 21 days
[32] = Aprepitant 70 mg/kg/day, 28 days
[33] = Aprepitant 80 mg/kg/day, 7 days
[34] = Aprepitant 80 mg/kg/day, 14 days
[35] = Aprepitant 80 mg/kg/day, 21 days
[36] = Aprepitant 80 mg/kg/day, 28 days

Compound: C[C@@H](O[C@H]1OCCN(Cc2n[nH]c(=O)[nH]2)[C@H]1c1ccc(F)cc1)c1cc(C(F)(F)F)cc(C(F)(F)F)c1 [Aprepitant]
- Proliferation of tumour cells (MTS) [1]: increase was observed of proliferation
- Proliferation of tumour cells (MTS) [2]: increase was observed of proliferation
- Tumour size (mean volume of the tumour) [3, 5]: 210 ± 3 cubic millimeters
- Tumour size (mean volume of the tumour) [3, 6]: 195 ± 6 cubic millimeters
- Tumour size (mean volume of the tumour) [3, 7]: 175 ± 7 cubic millimeters
- Tumour size (mean volume of the tumour) [3, 8]: 170 ± 6 cubic millimeters
- Tumour size (mean volume of the tumour) [3, 9]: 195 ± 6 cubic millimeters
- Tumour size (mean volume of the tumour) [3, 10]: 175 ± 7 cubic millimeters
- Tumour size (mean volume of the tumour) [3, 11]: 160 ± 6 cubic millimeters
- Tumour size (mean volume of the tumour) [3, 12]: 150 ± 7 cubic millimeters
- Tumour size (mean volume of the tumour) [3, 13]: 180 ± 7 cubic millimeters
- Tumour size (mean volume of the tumour) [3, 14]: 155 ± 4 cubic millimeters
- Tumour size (mean volume of the tumour) [3, 15]: 145 ± 8 cubic millimeters
- Tumour size (mean volume of the tumour) [3, 16]: 140 ± 4 cubic millimeters
- Tumour size (mean volume of the tumour) [3, 17]: 165 ± 8 cubic millimeters
- Tumour size (mean volume of the tumour) [3, 18]: 165 ± 6 cubic millimeters
- Tumour size (mean volume of the tumour) [3, 19]: 130 ± 5 cubic millimeters
- Tumour size (mean volume of the tumour) [3, 20]: 110 ± 6 cubic millimeters
- Tumour size (mean volume of the tumour) [3, 21]: 150 ± 5 cubic millimeters
- Tumour size (mean volume of the tumour) [3, 22]: 145 ± 7 cubic millimeters
- Tumour size (mean volume of the tumour) [3, 23]: 120 ± 6 cubic millimeters
- Tumour size (mean volume of the tumour) [3, 24]: 100 ± 7 cubic millimeters
- Tumour size (mean volume of the tumour) [3, 25]: 130 ± 6 cubic millimeters
- Tumour size (mean volume of the tumour) [3, 26]: 130 ± 8 cubic millimeters
- Tumour size (mean volume of the tumour) [3, 27]: 100 ± 7 cubic millimeters
- Tumour size (mean volume of the tumour) [3, 28]: 85 ± 4 cubic millimeters
- Tumour size (mean volume of the tumour) [3, 29]: 110 ± 4 cubic millimeters
- Tumour size (mean volume of the tumour) [3, 30]: 105 ± 4 cubic millimeters
- Tumour size (mean volume of the tumour) [3, 31]: 80 ± 5 cubic millimeters
- Tumour size (mean volume of the tumour) [3, 32]: 80 ± 7 cubic millimeters
- Tumour size (mean volume of the tumour) [3, 33]: 95 ± 6 cubic millimeters
- Tumour size (mean volume of the tumour) [3, 34]: 85 ± 6 cubic millimeters
- Tumour size (mean volume of the tumour) [3, 35]: 65 ± 3 cubic millimeters
- Tumour size (mean volume of the tumour) [3, 36]: 65 ± 9 cubic millimeters
- Reduction in brain tumour size (brain tumours): does not cause a reduction in brain tumour sizes; also recorded: does not produce reduction in the size of brain tumours
- Tumour size (mean volume of the tumour) [4, 5]: 235 ± 3 cubic millimeters
- Tumour size (mean volume of the tumour) [4, 6]: 215 ± 4 cubic millimeters
- Tumour size (mean volume of the tumour) [4, 7]: 190 ± 4 cubic millimeters
- Tumour size (mean volume of the tumour) [4, 8]: 170 ± 6 cubic millimeters
- Tumour size (mean volume of the tumour) [4, 9]: 210 ± 6 cubic millimeters
- Tumour size (mean volume of the tumour) [4, 10]: 200 ± 5 cubic millimeters
- Tumour size (mean volume of the tumour) [4, 11]: 175 ± 5 cubic millimeters
- Tumour size (mean volume of the tumour) [4, 12]: 150 ± 7 cubic millimeters
- Tumour size (mean volume of the tumour) [4, 13]: 195 ± 7 cubic millimeters
- Tumour size (mean volume of the tumour) [4, 14]: 185 ± 6 cubic millimeters
- Tumour size (mean volume of the tumour) [4, 15]: 160 ± 6 cubic millimeters
- Tumour size (mean volume of the tumour) [4, 16]: 140 ± 4 cubic millimeters
- Tumour size (mean volume of the tumour) [4, 17]: 175 ± 8 cubic millimeters
- Tumour size (mean volume of the tumour) [4, 18]: 160 ± 8 cubic millimeters
- Tumour size (mean volume of the tumour) [4, 19]: 140 ± 4 cubic millimeters
- Tumour size (mean volume of the tumour) [4, 20]: 110 ± 6 cubic millimeters
- Tumour size (mean volume of the tumour) [4, 21]: 160 ± 5 cubic millimeters
- Tumour size (mean volume of the tumour) [4, 22]: 150 ± 4 cubic millimeters
- Tumour size (mean volume of the tumour) [4, 23]: 125 ± 5 cubic millimeters
- Tumour size (mean volume of the tumour) [4, 24]: 100 ± 7 cubic millimeters
- Tumour size (mean volume of the tumour) [4, 25]: 145 ± 6 cubic millimeters
- Tumour size (mean volume of the tumour) [4, 26]: 135 ± 5 cubic millimeters
- Tumour size (mean volume of the tumour) [4, 27]: 115 ± 6 cubic millimeters
- Tumour size (mean volume of the tumour) [4, 28]: 85 ± 4 cubic millimeters
- Tumour size (mean volume of the tumour) [4, 29]: 125 ± 4 cubic millimeters
- Tumour size (mean volume of the tumour) [4, 30]: 105 ± 6 cubic millimeters
- Tumour size (mean volume of the tumour) [4, 31]: 90 ± 4 cubic millimeters
- Tumour size (mean volume of the tumour) [4, 32]: 80 ± 7 cubic millimeters
- Tumour size (mean volume of the tumour) [4, 33]: 100 ± 6 cubic millimeters
- Tumour size (mean volume of the tumour) [4, 34]: 95 ± 7 cubic millimeters
- Tumour size (mean volume of the tumour) [4, 35]: 65 ± 7 cubic millimeters
- Tumour size (mean volume of the tumour) [4, 36]: 65 ± 9 cubic millimeters
- Proliferation of tumour cells (MTS) (Human lung cancer A-427): increase was observed of proliferation
- Proliferation of tumour cells (MTS) (Human glioma GAMG): increase was observed of proliferation
